Structures are written as SMILES.

Results on three compounds are retold here after ChEMBL document CHEMBL3627608, “Crystal structures of human RIP2 kinase catalytic domain complexed with ATP-competitive inhibitors: Foundations for understanding inhibitor selectivity” (Bioorg Med Chem, 2015).

In assay [1] the target is Mitogen-activated protein kinase kinase kinase 10 (Homo sapiens) (UniProt Q02779). As to the kind of experiment: Inhibition of MLK2 (unknown origin) at 10 uM after 120 mins P33 radiolabeled kinase activity assay.
For assay [2], the target named is Mitogen-activated protein kinase kinase kinase 12 (Homo sapiens) (UniProt Q12852). As to the kind of experiment: Inhibition of DLK (unknown origin) at 10 uM after 120 mins P33 radiolabeled kinase activity assay.
Assay [3] addresses T1, Mitogen-activated protein kinase kinase kinase kinase 3 (Homo sapiens) (UniProt Q8IVH8).
T1 sequence (whole entry): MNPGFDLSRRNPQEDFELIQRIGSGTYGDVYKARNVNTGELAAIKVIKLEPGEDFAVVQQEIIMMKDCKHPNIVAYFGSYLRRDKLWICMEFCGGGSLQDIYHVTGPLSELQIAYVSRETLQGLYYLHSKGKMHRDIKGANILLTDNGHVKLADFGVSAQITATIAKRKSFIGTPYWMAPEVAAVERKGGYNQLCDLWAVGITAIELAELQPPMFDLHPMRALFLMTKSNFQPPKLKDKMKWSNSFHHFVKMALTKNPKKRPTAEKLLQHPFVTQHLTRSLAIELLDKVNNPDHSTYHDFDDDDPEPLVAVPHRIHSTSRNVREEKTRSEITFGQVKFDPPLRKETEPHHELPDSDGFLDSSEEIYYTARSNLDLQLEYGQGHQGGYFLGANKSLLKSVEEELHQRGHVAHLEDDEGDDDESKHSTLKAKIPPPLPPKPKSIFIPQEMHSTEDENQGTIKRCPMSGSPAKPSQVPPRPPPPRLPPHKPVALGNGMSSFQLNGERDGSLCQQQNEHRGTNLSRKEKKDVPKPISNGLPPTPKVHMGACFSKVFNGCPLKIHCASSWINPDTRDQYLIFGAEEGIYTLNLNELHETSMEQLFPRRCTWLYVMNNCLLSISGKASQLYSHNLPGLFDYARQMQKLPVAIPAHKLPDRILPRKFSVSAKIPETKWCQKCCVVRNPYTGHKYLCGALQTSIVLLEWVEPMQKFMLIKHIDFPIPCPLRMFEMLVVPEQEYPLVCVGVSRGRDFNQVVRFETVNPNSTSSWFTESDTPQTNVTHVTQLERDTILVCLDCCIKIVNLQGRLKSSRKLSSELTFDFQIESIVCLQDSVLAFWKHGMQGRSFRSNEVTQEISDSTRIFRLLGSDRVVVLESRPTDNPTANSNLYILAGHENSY
The experiment in a line: Inhibition of GLK (unknown origin) at 10 uM after 120 mins P33 radiolabeled kinase activity assay.

Assay [4] has as its target Receptor-interacting serine/threonine-protein kinase 2 (Homo sapiens, UniProt O43353). As to the kind of experiment: Inhibition of full-length FLAG-6His-TEV tagged human RIP2 expressed in Sf9 cells by fluorescent polarization assay.
For assay [5], the target named is T2, Serine/threonine-protein kinase DCLK2 (Homo sapiens) (UniProt Q8N568).
T2 sequence (whole entry): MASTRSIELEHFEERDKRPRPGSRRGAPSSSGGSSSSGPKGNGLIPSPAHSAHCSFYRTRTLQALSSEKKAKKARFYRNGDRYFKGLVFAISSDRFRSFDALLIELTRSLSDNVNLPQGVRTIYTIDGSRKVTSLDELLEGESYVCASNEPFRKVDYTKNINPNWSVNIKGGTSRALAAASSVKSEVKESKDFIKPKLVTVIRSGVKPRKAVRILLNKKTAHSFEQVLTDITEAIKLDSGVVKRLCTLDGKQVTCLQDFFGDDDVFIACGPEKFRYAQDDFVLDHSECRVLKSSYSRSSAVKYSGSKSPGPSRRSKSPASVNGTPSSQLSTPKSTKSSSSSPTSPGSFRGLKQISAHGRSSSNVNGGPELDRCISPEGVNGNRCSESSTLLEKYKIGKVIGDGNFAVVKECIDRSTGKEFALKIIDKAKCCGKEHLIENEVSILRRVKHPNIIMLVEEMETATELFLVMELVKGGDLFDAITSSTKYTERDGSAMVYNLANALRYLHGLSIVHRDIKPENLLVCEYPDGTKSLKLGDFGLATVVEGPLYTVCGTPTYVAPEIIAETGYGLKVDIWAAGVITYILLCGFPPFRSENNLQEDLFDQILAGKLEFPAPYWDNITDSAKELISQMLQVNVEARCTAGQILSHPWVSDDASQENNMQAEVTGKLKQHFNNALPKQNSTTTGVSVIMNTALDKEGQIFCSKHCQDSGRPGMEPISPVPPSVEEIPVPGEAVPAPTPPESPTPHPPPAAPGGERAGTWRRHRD
The experiment in a line: Inhibition of DCAMKL2 (unknown origin) at 10 uM after 120 mins P33 radiolabeled kinase activity assay.

In assay [6] the target is Ephrin type-A receptor 7 (Homo sapiens) (UniProt Q15375). The experiment in a line: Inhibition of EPHA7 (unknown origin) at 10 uM after 120 mins P33 radiolabeled kinase activity assay.
For assay [7], the target named is Epithelial discoidin domain-containing receptor 1 (Homo sapiens) (UniProt Q08345). The experiment in a line: Inhibition of DDR1 (unknown origin) at 10 uM after 120 mins P33 radiolabeled kinase activity assay.
Assay [8] has as its target Serine/threonine-protein kinase MARK1 (Homo sapiens) (UniProt Q9P0L2). As to the kind of experiment: Inhibition of MARK1 (unknown origin) at 10 uM after 120 mins P33 radiolabeled kinase activity assay.
The target of assay [9] is Homeodomain-interacting protein kinase 1 (Homo sapiens) (UniProt Q86Z02). The experiment in a line: Inhibition of HIPK1 (unknown origin) at 10 uM after 120 mins P33 radiolabeled kinase activity assay.
Assay [10] addresses Inactive tyrosine-protein kinase PEAK1 (Homo sapiens) (UniProt Q9H792). The experiment in a line: Inhibition of PEAK1 (unknown origin) at 10 uM after 120 mins P33 radiolabeled kinase activity assay.
Assay [11] deals with T3, Protein kinase C zeta type (Homo sapiens) (UniProt Q05513).
T3 sequence (whole entry): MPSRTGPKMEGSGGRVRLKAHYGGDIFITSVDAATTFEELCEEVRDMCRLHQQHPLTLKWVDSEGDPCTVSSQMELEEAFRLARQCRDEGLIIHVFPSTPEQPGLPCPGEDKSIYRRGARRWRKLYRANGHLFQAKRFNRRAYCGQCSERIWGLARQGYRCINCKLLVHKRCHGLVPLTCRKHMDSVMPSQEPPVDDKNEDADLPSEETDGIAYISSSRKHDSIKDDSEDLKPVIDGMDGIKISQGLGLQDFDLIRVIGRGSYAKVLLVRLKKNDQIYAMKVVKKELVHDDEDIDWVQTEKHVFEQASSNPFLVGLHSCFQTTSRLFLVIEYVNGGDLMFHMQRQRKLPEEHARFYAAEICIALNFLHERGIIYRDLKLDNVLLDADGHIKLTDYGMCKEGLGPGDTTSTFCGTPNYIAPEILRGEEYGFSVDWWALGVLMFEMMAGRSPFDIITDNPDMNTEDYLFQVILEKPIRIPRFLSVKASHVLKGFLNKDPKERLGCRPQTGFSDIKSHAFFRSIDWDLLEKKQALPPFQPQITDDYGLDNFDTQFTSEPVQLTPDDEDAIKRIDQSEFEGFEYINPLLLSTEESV
The experiment in a line: Inhibition of PKCzeta (unknown origin) at 10 uM after 120 mins P33 radiolabeled kinase activity assay.

Chain of Ephrin type-A receptor 7 (Homo sapiens) (Q15375 28-998 limits assumed): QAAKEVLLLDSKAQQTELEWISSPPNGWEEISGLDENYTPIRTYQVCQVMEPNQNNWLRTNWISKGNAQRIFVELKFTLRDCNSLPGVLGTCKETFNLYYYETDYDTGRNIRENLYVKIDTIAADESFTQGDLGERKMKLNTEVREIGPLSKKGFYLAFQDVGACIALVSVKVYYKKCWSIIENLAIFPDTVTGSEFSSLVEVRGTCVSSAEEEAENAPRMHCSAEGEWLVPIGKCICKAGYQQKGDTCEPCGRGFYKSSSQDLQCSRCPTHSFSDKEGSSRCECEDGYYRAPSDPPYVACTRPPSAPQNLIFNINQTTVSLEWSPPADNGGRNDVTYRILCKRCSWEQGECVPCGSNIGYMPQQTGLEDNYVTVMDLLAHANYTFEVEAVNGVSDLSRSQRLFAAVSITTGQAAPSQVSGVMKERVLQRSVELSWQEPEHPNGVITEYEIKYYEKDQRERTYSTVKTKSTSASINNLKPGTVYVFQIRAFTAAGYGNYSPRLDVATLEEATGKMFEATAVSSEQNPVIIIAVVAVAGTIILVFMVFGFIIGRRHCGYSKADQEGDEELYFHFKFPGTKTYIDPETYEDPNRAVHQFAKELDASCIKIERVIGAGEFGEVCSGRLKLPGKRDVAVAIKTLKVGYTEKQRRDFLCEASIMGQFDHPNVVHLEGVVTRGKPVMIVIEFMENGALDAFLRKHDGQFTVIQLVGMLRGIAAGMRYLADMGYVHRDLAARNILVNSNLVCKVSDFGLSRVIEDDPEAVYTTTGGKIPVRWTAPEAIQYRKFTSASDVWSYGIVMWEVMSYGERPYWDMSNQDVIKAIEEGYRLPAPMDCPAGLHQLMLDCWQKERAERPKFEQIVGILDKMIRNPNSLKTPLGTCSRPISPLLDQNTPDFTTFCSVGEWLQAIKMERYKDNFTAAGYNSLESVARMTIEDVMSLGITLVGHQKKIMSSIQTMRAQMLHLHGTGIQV
Chain of Epithelial discoidin domain-containing receptor 1 (Homo sapiens) (Q08345 whole entry, the tested form may be a part): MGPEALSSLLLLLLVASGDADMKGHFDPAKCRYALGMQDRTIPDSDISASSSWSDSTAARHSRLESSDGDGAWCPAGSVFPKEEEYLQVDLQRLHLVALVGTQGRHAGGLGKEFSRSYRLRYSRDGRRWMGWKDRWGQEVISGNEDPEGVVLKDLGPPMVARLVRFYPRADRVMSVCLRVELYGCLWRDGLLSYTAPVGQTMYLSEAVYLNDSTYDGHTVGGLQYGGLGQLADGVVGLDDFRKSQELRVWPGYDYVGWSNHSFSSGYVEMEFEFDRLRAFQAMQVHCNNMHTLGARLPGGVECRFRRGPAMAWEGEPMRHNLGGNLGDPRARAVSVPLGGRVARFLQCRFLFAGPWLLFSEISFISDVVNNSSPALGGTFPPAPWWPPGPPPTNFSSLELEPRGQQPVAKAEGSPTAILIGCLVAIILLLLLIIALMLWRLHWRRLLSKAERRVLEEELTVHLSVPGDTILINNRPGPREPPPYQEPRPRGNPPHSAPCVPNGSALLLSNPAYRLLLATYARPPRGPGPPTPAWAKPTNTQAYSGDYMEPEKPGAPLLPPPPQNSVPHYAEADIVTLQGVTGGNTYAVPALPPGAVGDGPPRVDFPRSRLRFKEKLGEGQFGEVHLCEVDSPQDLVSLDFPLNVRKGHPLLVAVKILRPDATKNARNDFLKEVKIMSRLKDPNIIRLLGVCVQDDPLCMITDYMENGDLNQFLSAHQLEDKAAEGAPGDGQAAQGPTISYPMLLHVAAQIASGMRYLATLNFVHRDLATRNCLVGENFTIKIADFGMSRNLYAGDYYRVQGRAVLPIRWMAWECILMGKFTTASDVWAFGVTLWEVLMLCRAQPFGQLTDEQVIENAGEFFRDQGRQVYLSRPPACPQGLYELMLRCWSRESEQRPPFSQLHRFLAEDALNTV
Chain of Inactive tyrosine-protein kinase PEAK1 (Homo sapiens) (Q9H792 whole entry): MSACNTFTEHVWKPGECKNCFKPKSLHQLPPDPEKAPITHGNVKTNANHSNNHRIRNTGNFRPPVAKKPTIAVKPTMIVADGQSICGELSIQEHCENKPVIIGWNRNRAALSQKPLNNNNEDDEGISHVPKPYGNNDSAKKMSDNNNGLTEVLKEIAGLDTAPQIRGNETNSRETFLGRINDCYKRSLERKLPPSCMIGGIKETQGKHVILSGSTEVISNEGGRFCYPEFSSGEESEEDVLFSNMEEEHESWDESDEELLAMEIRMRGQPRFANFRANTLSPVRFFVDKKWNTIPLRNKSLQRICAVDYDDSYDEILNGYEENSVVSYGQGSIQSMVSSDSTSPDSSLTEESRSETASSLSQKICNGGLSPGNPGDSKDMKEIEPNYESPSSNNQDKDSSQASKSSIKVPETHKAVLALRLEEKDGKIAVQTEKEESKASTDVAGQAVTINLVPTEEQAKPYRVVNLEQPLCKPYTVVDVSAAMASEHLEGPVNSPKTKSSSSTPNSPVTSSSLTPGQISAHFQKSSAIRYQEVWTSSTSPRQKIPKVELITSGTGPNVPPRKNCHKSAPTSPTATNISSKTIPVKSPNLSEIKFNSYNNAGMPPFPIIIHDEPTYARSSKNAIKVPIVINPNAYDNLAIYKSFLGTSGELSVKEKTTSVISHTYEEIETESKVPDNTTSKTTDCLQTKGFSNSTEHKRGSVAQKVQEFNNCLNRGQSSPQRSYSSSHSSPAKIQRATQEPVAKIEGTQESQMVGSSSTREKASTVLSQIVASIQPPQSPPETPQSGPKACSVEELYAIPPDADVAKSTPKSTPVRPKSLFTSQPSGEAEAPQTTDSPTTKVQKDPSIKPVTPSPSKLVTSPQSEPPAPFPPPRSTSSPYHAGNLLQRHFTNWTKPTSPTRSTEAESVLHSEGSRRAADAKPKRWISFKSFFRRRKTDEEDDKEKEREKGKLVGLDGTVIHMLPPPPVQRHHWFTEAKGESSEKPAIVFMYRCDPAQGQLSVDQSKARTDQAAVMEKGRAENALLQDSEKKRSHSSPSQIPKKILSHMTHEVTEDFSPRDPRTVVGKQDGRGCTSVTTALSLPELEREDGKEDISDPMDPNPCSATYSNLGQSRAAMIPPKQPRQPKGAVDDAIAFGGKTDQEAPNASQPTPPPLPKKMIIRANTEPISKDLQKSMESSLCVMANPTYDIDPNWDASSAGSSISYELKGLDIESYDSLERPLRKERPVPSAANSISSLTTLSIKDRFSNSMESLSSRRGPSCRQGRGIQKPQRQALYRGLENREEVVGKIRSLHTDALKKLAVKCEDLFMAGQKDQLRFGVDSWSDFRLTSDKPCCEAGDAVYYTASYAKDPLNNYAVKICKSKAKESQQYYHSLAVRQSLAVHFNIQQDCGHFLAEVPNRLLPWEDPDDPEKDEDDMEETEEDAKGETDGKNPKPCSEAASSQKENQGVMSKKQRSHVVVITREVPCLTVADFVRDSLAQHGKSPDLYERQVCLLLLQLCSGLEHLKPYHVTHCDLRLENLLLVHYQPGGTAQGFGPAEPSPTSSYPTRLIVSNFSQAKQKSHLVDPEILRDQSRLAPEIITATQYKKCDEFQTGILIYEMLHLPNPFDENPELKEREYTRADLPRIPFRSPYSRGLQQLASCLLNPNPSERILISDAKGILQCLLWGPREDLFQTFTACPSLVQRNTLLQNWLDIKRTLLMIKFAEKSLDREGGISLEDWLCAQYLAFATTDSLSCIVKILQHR
Chain of Mitogen-activated protein kinase kinase kinase 10 (Homo sapiens) (Q02779 whole entry, looked up): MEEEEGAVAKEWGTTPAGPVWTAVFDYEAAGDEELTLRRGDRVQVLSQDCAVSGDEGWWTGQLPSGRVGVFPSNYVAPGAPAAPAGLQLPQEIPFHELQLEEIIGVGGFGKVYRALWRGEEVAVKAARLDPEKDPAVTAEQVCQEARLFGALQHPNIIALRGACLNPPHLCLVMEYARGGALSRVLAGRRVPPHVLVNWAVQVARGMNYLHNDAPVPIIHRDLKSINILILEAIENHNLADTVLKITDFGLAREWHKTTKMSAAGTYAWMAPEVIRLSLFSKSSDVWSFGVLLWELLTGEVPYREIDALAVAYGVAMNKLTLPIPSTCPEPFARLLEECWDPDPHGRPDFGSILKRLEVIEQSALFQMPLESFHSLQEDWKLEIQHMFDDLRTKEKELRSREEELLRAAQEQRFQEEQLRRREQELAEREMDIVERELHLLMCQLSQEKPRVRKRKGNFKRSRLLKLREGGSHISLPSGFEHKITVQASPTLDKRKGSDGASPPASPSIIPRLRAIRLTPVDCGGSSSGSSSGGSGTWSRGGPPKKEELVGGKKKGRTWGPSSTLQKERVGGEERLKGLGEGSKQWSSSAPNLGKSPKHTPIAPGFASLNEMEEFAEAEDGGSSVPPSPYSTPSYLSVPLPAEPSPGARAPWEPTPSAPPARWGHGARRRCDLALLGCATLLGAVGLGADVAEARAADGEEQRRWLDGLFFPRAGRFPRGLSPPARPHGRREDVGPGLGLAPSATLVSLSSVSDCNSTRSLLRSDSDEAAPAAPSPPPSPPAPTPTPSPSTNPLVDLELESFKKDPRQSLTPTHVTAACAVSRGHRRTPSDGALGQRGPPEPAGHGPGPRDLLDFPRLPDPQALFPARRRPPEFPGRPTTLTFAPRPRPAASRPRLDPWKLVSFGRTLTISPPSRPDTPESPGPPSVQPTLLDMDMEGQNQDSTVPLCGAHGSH
Chain of Receptor-interacting serine/threonine-protein kinase 2 (O43353 whole entry): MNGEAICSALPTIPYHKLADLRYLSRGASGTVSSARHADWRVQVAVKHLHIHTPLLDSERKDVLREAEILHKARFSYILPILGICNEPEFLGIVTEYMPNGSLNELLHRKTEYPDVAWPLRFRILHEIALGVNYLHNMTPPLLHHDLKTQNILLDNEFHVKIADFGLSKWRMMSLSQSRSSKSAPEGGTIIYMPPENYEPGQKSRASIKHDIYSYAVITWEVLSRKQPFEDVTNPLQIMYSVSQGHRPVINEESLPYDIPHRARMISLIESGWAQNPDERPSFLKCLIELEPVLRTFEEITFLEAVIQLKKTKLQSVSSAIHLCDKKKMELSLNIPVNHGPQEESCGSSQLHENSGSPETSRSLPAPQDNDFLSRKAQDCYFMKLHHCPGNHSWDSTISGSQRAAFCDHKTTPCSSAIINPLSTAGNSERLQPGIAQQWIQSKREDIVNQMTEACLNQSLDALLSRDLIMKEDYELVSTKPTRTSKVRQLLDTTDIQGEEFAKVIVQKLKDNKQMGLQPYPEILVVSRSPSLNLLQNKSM

Turning to `COCCNC(=O)c1ccc2c(c1)nc(-c1cnc(-c3ccc(Cl)cc3)[nH]1)n2CCOC`, the inhibition (as a rule, the drop in the measured response relative to a control, in per cent) in assay [1] is 8.79%; in assay [2], 5.39%; in assay [3] it was 4.53%; in assay [5], -0.71%; in [6] it was 18.8%; in assay [7] it was 66%. The inhibition was 3.28% in [8], -8.42% in [9], 82.8% in [10] and 3.68% in assay [11]. The 50% inhibitory concentration (IC50) (usually the point on the concentration scale where inhibition reaches its midpoint) in assay [4] was determined as 500 nM.
With `CC(C)(C)c1cc(NC(=O)Nc2ccc(Oc3ccncc3)cc2)no1`, the inhibition in assay [1] worked out at 39.5%; in [2], 8.04%; in [3], 41.9%; in assay [5], 2.04%; in assay [6], 96.5%; in assay [7], 98.1%. In addition, the inhibition was found to be 4.99% in assay [8], 8.52% in assay [9], 86.1% in assay [10] and 5.44% in assay [11]. In [4], this compound yielded an IC50 of 320 nM.
In the case of `CS(=O)(=O)c1cccc(Nc2nccc(-c3sc(N4CCOCC4)nc3-c3cccc(NS(=O)(=O)c4c(F)cccc4F)c3)n2)c1`, the inhibition was 102% in [1]; 53% in [2]; 56.2% in assay [3]; -1.11% in [5]; 47.5% in [6]; 98.6% in assay [7]. The inhibition came out at 10.3% in assay [8], 81.1% in [9], 100% in assay [10] and 7.55% in assay [11]. Besides, it took 7.9 nM to reach half-maximal inhibition in [4] (IC50).
